Like-named read-outs stand apart in the source and are kept apart here.
Tested on: male dd-mice
Assay: anti-apomorphine activity in mice (inhibition of motor activity after apomorphine, animex)
Format: in vivo
Conditions: Mus musculus, po, read-out: Anti-apomorphine activity ED50 (dose which inhibited the motor activity by 50% as compared with the control)
Method: Groups of 5 male dd-mice (20-25 g body weight) each were used. Apomorphine hydrochloride (0.5 mg/kg) was subcutaneously administered 60 minutes after oral administration of test compound. Immediately after the apomorphine treatment, motor activity was determined for 20 minutes by animex. For the control groups, 0.5% methylcellulose solution was administered instead of test compound. The ED50, a dose which inhibited the motor activity by 50% as compared with the control, was determined.

[1] = male dd-mice, p.o., 60 min before apomorphine hydrochloride 0.5 mg/kg s.c., motor activity for 20 min by animex

| Structure (SMILES) | ED50 [1] | ED50 |
| --- | --- | --- |
| O=c1[nH]c2ccccc2n1C1CCN(CC2=NOC(c3ccc(F)cc3)C2)CC1 (stereo not shown) [A, 1-[5-(4-Fluorophenyl)-4,5-dihydroisoxazol-3-ylmethyl]-4-(2-oxo-1-benzimidazolinyl)piperidine] | 1.7 mg/kg | – |
| O=c1[nH]c2cc(F)ccc2n1C1CCN(CC2=NOC(c3ccc(F)cc3)C2)CC1 (stereo not shown) [B, 1-[5-(4-Fluorophenyl)-4,5-dihydroisoxazol-3-ylmethyl]-4-(5-fluoro-2-oxo-1-benzimidazolinyl)piperidine] | 2.1 mg/kg | – |
| OC1(c2ccc(Cl)cc2)CCN(CC2=NOC(c3ccc(F)cc3)C2)CC1 (stereo not shown) [C, 1-[5-(4-Fluorophenyl)-4,5-dihydroisoxazol-3-ylmethyl]-4-(4-chlorophenyl)-4-hydroxypiperidine] | – | 3.4 mg/kg |
| CN1CCN(C2=Nc3cc(Cl)ccc3Nc3ccccc32)CC1 [Clozapine, reference compound] | 10 mg/kg | – |

— US4397853A, “Isoxazole derivatives” (Yoshitomi Pharmaceutical Industries Ltd., priority 1979, dated 1983)
